Test results from patent US8309734B2 (Hoffmann-La Roche Inc., priority 2008, dated 2012).

molecular target: T1, human GPBAR1 receptor (Homo sapiens, UniProt Q8TDU6); assay: functional cAMP assay in CHO-dhfr(minus) cells expressing human GPBAR1 receptors; format: cell-based; conditions: cAMP increase (TR-FRET) in CHO-dhfr(minus) cells expressing human GPBAR1; compounds incubated 30 min at 30° C.
T1 construct: expressed in transfected cells
T1 sequence (Q8TDU6 1-330): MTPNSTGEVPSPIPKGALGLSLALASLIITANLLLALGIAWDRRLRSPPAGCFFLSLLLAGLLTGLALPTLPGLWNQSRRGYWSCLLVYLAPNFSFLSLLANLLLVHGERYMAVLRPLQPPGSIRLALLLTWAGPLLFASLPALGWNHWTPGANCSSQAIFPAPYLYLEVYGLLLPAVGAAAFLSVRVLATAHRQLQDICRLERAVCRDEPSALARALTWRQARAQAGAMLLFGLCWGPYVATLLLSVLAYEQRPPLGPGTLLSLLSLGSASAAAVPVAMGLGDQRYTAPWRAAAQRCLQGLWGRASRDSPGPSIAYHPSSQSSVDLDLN
Description: The final clone was verified by DNA sequence analysis. The plasmid was transfected into CHO cells deficient in dihydrofolate reductase activity (CHO-dhfr-) using Lipofectamine plus (Invitrogen). Clones were isolated in limited dilution conditions and identified by activities in the cAMP assay using lithocholic acid as agonist.
The growth medium was exchanged with Krebs Ringer Bicarbonate buffer with 1 mM IBMX and incubated at 30° C. for 30 mM. Compounds were added to a final assay volume of 100 μl and incubated for 30 min at 30° C. […] The time-resolved energy transfer is measured by a TRF reader (Evotec Technologies GmbH, Hamburg Germany), equipped with a ND:YAG laser as excitation source. The plate is measured twice with the excitation at 355 nm and at the emission with a delay of 100 ns and a gate of 100 ns, total exposure time 10s at 730 (bandwith 30 nm) or 645 nm (bandwith 75 nm), respectively.
EC50 values were determined using Activity Base analysis (ID Business Solution, Limited). […] Specificity for GPBAR1 was tested in non-transfected CHO cells in the same assay as above.

Compared with `O=C(c1cccnc1Oc1cccc(C(F)(F)F)c1)N1CCCc2ccccc21` [Example 1, (3,4-Dihydro-2H-quinolin-1-yl)-[2-(3-trifluoromethyl-phenoxy)-pyridin-3-yl]-methanone], `O=C(c1cccnc1Oc1cccc(OC(F)(F)F)c1)N1CCCc2ccccc21` [Example 16, (3,4-Dihydro-2H-quinolin-1-yl)-[2-(3-trifluoromethoxy-phenoxy)-pyridin-3-yl]-methanone] is 4.8-fold higher in EC50: 0.396 µM for the first, 1.92 µM for the second. The first is the more potent here.

`O=C(c1cccnc1Oc1ccccc1Cl)N1CCCc2ccccc21` [Example 2, [2-(2-Chloro-phenoxy)-pyridin-3-yl]-(3,4-dihydro-2H-quinolin-1-yl)-methanone] and `O=C(c1cccnc1Oc1cccc(Cl)c1Cl)N1CCCc2ccccc21` [Example 12, [2-(2,3-Dichloro-phenoxy)-pyridin-3-yl]-(3,4-dihydro-2H-quinolin-1-yl)-methanone] are within 1.5-fold of each other in EC50: 0.989 µM for the first, 1.15 µM for the second.

Going from `O=C(c1cccnc1Oc1cccc(Cl)c1)N1CCCc2ccccc21` [Example 3, [2-(3-Chloro-phenoxy)-pyridin-3-yl]-(3,4-dihydro-2H-quinolin-1-yl)-methanone] to `Cc1cccc(Oc2ncccc2C(=O)N2CCCc3ccccc32)c1` [Example 8, (3,4-Dihydro-2H-quinolin-1-yl)-(2-m-tolyloxy-pyridin-3-yl)-methanone], the EC50 rises from 0.192 µM to 0.644 µM (3.4-fold).

Going from `Cc1ccc2c(c1)CCCN2C(=O)c1cccnc1Oc1cccc(C(F)(F)F)c1` [Example 4, (6-Methyl-3,4-dihydro-2H-quinolin-1-yl)-[2-(3-trifluoromethyl-phenoxy)-pyridin-3-yl]-methanone] to `Cc1ccc2c(c1)CCCN2C(=O)c1cccnc1Oc1cccc(Cl)c1` [Example 5, [2-(3-Chloro-phenoxy)-pyridin-3-yl]-(6-methyl-3,4-dihydro-2H-quinolin-1-yl)-methanone], the EC50 falls from 1.4 µM to 0.649 µM (2.2-fold). The second is the more potent here.

`O=C(c1cccnc1Oc1ccc(Cl)c(Cl)c1)N1CCCc2ccccc21` [Example 6, [2-(3,4-Dichloro-phenoxy)-pyridin-3-yl]-(3,4-dihydro-2H-quinolin-1-yl)-methanone] and `Cc1ccc(Oc2ncccc2C(=O)N2CCCc3ccccc32)cc1Cl` [Example 9, [2-(3-Chloro-4-methyl-phenoxy)-pyridin-3-yl]-(3,4-dihydro-2H-quinolin-1-yl)-methanone] are within 1.5-fold of each other in EC50: 0.996 µM for the first, 1.01 µM for the second.

Compared with `N#Cc1cccc(Oc2ncccc2C(=O)N2CCCc3ccccc32)c1` [Example 7, 3-[3-(3,4-Dihydro-2H-quinoline-1-carbonyl)-pyridin-2-yloxy]-benzonitrile], `O=C(c1cccnc1Oc1cccc(F)c1)N1CCCc2ccccc21` [Example 18, (3,4-Dihydro-2H-quinolin-1-yl)-[2-(3-fluoro-phenoxy)-pyridin-3-yl]-methanone] is 1.8-fold lower in EC50: 0.575 µM for the first, 0.322 µM for the second.

Compared with `O=C(c1cccnc1Oc1ccc(F)c(Cl)c1)N1CCCc2ccccc21` [Example 10, [2-(3-Chloro-4-fluoro-phenoxy)-pyridin-3-yl]-(3,4-dihydro-2H-quinolin-1-yl)-methanone], `O=C(c1cccnc1Oc1cc(F)cc(Cl)c1)N1CCCc2ccccc21` [Example 13, [2-(3-Chloro-5-fluoro-phenoxy)-pyridin-3-yl]-(3,4-dihydro-2H-quinolin-1-yl)-methanone] is 2.8-fold higher in EC50: 0.053 µM for the first, 0.149 µM for the second.

`Cc1ccc(Cl)cc1Oc1ncccc1C(=O)N1CCCc2ccccc21` [Example 11, [2-(5-Chloro-2-methyl-phenoxy)-pyridin-3-yl]-(3,4-dihydro-2H-quinolin-1-yl)-methanone] and `Cc1ccc2c(c1)CCCN2C(=O)c1cccnc1Oc1cc(Cl)ccc1Cl` [Example 31, [2-(2,5-Dichloro-phenoxy)-pyridin-3-yl]-(6-methyl-3,4-dihydro-2H-quinolin-1-yl)-methanone] are within 1.5-fold of each other in EC50: 0.153 µM for the first, 0.138 µM for the second.

Compared with `O=C(c1cccnc1Oc1cc(Cl)c(Cl)cc1Cl)N1CCCc2ccccc21` [Example 14, (3,4-Dihydro-2H-quinolin-1-yl)-[2-(2,4,5-trichloro-phenoxy)-pyridin-3-yl]-methanone], `O=C(c1cc(Cl)cnc1Oc1cc(Cl)ccc1Cl)N1CCCc2ccccc21` [Example 27, [5-Chloro-2-(2,5-dichloro-phenoxy)-pyridin-3-yl]-(3,4-dihydro-2H-quinolin-1-yl)-methanone] is 1.6-fold lower in EC50: 0.236 µM for the first, 0.145 µM for the second.

Compared with `O=C(c1ccccc1)c1cccc(Oc2ncccc2C(=O)N2CCCc3ccccc32)c1` [Example 15, [2-(3-Benzoyl-phenoxy)-pyridin-3-yl]-(3,4-dihydro-2H-quinolin-1-yl)-methanone], `O=C(c1cccnc1Oc1cccc(I)c1)N1CCCc2ccccc21` [Example 21, (3,4-Dihydro-2H-quinolin-1-yl)-[2-(3-iodo-phenoxy)-pyridin-3-yl]-methanone] is 4.9-fold lower in EC50: 1.69 µM for the first, 0.345 µM for the second.

`O=C(c1cccnc1Oc1cc(Cl)cc(Cl)c1)N1CCCc2ccccc21` [Example 17, [2-(3,5-Dichloro-phenoxy)-pyridin-3-yl]-(3,4-dihydro-2H-quinolin-1-yl)-methanone] and `O=C(c1cccnc1Oc1cccc(Br)c1)N1CCCc2ccccc21` [Example 23, [2-(3-Bromo-phenoxy)-pyridin-3-yl]-(3,4-dihydro-2H-quinolin-1-yl)-methanone] are within 1.5-fold of each other in EC50: 0.176 µM for the first, 0.232 µM for the second.

`CC(C)c1cccc(Oc2ncccc2C(=O)N2CCCc3ccccc32)c1` [Example 19, (3,4-Dihydro-2H-quinolin-1-yl)-[2-(3-isopropyl-phenoxy)-pyridin-3-yl]-methanone] and `CCc1cccc(Oc2ncccc2C(=O)N2CCCc3ccccc32)c1` [Example 20, (3,4-Dihydro-2H-quinolin-1-yl)-[2-(3-ethyl-phenoxy)-pyridin-3-yl]-methanone] are within 1.5-fold of each other in EC50: 0.625 µM for the first, 0.473 µM for the second.

Going from `O=C(c1cccnc1Oc1cc(C(F)(F)F)cc(Cl)c1F)N1CCCc2ccccc21` [Example 22, [2-(3-Chloro-2-fluoro-5-trifluoromethyl-phenoxy)-pyridin-3-yl]-(3,4-dihydro-2H-quinolin-1-yl)-methanone] to `O=C(c1ccc(C(F)(F)F)nc1Oc1cc(Cl)ccc1Cl)N1CCCc2ccccc21` [Example 29, [2-(2,5-Dichloro-phenoxy)-6-trifluoromethyl-pyridin-3-yl]-(3,4-dihydro-2H-quinolin-1-yl)-methanone], the EC50 falls from 0.651 µM to 0.144 µM (4.5-fold). The second is the more potent here.

`O=C(c1cc(F)cnc1Oc1cccc(Cl)c1)N1CCCc2ccccc21` [Example 25, [2-(3-Chloro-phenoxy)-5-fluoro-pyridin-3-yl]-(3,4-dihydro-2H-quinolin-1-yl)-methanone] and `O=C(c1cc(F)cnc1Oc1cc(F)ccc1F)N1CCCc2ccccc21` [Example 26, [2-(2,5-Difluoro-phenoxy)-5-fluoro-pyridin-3-yl]-(3,4-dihydro-2H-quinolin-1-yl)-methanone] are within 1.5-fold of each other in EC50: 0.128 µM for the first, 0.106 µM for the second.

Compared with `O=C(c1cc(Cl)cnc1Oc1cc(F)ccc1F)N1CCCc2ccccc21` [Example 28, [5-Chloro-2-(2,5-difluoro-phenoxy)-pyridin-3-yl]-(3,4-dihydro-2H-quinolin-1-yl)-methanone], `O=C(c1cccnc1Oc1cc(Cl)ccc1Cl)N1CCCc2ccc(F)cc21` [Example 34, [2-(2,5-Dichloro-phenoxy)-pyridin-3-yl]-(7-fluoro-3,4-dihydro-2H-quinolin-1-yl)-methanone] is 34-fold lower in EC50: 1.98 µM for the first, 0.058 µM for the second.

First: O=C(c1cccnc1Oc1cccc(Cl)c1)N1CCOc2ccccc21 [Example 30, [2-(3-Chloro-phenoxy)-pyridin-3-yl]-(2,3-dihydro-benzo[1,4]oxazin-4-yl)-methanone]
Second: O=C(c1cccnc1Oc1cc(Cl)ccc1Cl)N1CCOc2ccccc21 [Example 36, [2-(2,5-Dichloro-phenoxy)-pyridin-3-yl]-(2,3-dihydro-benzo[1,4]oxazin-4-yl)-methanone]
The EC50 of the first is 3.2-fold higher: 0.436 µM for the first, 0.135 µM for the second.

Compared with `CCN(C(=O)c1cccnc1Oc1cc(Cl)ccc1Cl)c1ccccc1` [Example 32, 2-(2,5-Dichloro-phenoxy)-N-ethyl-N-phenyl-nicotinamide], `CN(C(=O)c1cccnc1Oc1cc(Cl)ccc1Cl)c1ccccc1` [Example 35, 2-(2,5-Dichloro-phenoxy)-N-methyl-N-phenyl-nicotinamide] is 4-fold higher in EC50: 0.07 µM for the first, 0.283 µM for the second. The first is the more potent here.

Going from `O=C(c1cccnc1Oc1cc(Cl)ccc1Cl)N1CCCc2ccc(Cl)cc21` [Example 33, (7-Chloro-3,4-dihydro-2H-quinolin-1-yl)-[2-(2,5-dichloro-phenoxy)-pyridin-3-yl]-methanone] to `O=C(c1cccnc1Oc1cc(Cl)ccc1Cl)N1CCCc2cc(F)ccc21` [Example 37, [2-(2,5-Dichloro-phenoxy)-pyridin-3-yl]-(6-fluoro-3,4-dihydro-2H-quinolin-1-yl)-methanone], the EC50 falls from 0.203 µM to 0.028 µM (7.2-fold).

Compared with `O=C(c1cccnc1Oc1cc(Cl)ccc1Cl)N1CCCc2cc(F)c(F)cc21` [Example 38, [2-(2,5-Dichloro-phenoxy)-pyridin-3-yl]-(6,7-difluoro-3,4-dihydro-2H-quinolin-1-yl)-methanone], `O=C(c1cccnc1Oc1cc(Cl)ccc1Cl)N1CCSc2ccccc21` [Example 39, [2-(2,5-Dichloro-phenoxy)-pyridin-3-yl]-(2,3-dihydro-benzo[1,4]thiazin-4-yl)-methanone] is 2-fold lower in EC50: 0.057 µM for the first, 0.029 µM for the second. The second is the more potent here.
